Patent publication US9029337B2, “Modulation of factor 7 expression” (Isis Pharmaceuticals, Inc., priority 2007, dated 2015)
Strand notation (5' to 3'): a small letter for the sugar, then the base; units joined by * are phosphorothioate-linked, units joined directly phosphodiester-linked; [ ] holds rarer units or linkages, { } end groups; capitals alone tell only the bases. e = 2'-O-(2-methoxyethyl) (MOE); [5mC] = 5-methylcytosine; d = 2'-deoxy (DNA)

System: human Factor 7 mRNA
Experiment: Antisense inhibition of human Factor 7 with short (14-mer) oligonucleotides in HepB3 cells, electroporation 1,000 nM
Type: cell-based
Conditions: electroporation, 1,000 nM antisense oligonucleotide, approximately 24 hours, Factor 7 mRNA relative to untreated control cells
Summary of the method: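 14-mer 2-10-2 MOE gapmers (full phosphorothioate, 5-methyl-C) electroporated at 1,000 nM into HepB3 cells at 20,000 cells/well. After ~24 h, Factor 7 mRNA by real-time RT-PCR, normalized to RiboGreen total RNA. Reported as % inhibition relative to untreated cells.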

Row | Substance | % Inhibition [%]
1 | 435768 (antisense eG*e[5mC]*d[5mC]*dT*dG*dG*dA*dT*dG*d[5mC]*dT*dG*eG*eT) [compound 435768] | 75
2 | 435769 (antisense eT*eT*d[5mC]*dT*dT*dT*dG*dA*dA*dA*dA*dA*eT*eA) [compound 435769] | 0
3 | 435770 (antisense e[5mC]*eT*d[5mC]*dT*dG*dA*dG*dA*dG*dG*d[5mC]*d[5mC]*e[5mC]*e[5mC]) [compound 435770] | 81
4 | 435771 (antisense eG*eT*d[5mC]*dA*dT*dA*dA*dG*dG*d[5mC]*d[5mC]*dA*eT*eG) [compound 435771] | 13
5 | 435772 (antisense eG*e[5mC]*dA*dG*dT*d[5mC]*d[5mC]*d[5mC]*dT*dG*d[5mC]*dT*e[5mC]*eA) [compound 435772] | 42
6 | 435773 (antisense e[5mC]*eA*dG*dG*dG*dA*dA*d[5mC]*dA*d[5mC]*d[5mC]*d[5mC]*eT*e[5mC]) [compound 435773] | 57
7 | 435774 (antisense eG*eT*d[5mC]*d[5mC]*d[5mC]*dA*dG*dG*dG*dA*dA*dG*eG*e[5mC]) [compound 435774] | 17
8 | 435775 (antisense eT*e[5mC]*dT*dG*dG*dA*dA*dG*dG*dA*dA*d[5mC]*eA*eG) [compound 435775] | 25
9 | 435776 (antisense eG*eG*dG*dA*d[5mC]*dA*d[5mC]*dT*d[5mC]*dA*d[5mC]*dA*e[5mC]*eT) [compound 435776] | 51
10 | 435777 (antisense e[5mC]*eT*dG*dA*dG*dG*dA*dT*dG*d[5mC]*dA*dG*eG*e[5mC]) [compound 435777] | 53
11 | 435778 (antisense eG*e[5mC]*dT*dA*d[5mC]*dT*dG*dG*dG*d[5mC]*d[5mC]*dA*e[5mC]*eG) [compound 435778] | 49
12 | 435779 (antisense eT*eG*dA*dG*d[5mC]*dG*d[5mC]*dG*dG*dA*dA*dG*eA*eA) [compound 435779] | 50
13 | 435780 (antisense eG*eG*dA*dG*dG*dG*dA*d[5mC]*dG*dA*d[5mC]*d[5mC]*eT*eT) [compound 435780] | 28
14 | 435781 (antisense eA*e[5mC]*d[5mC]*dA*d[5mC]*dG*d[5mC]*dG*dG*dT*dG*dG*eT*eG) [compound 435781] | 0
15 | 435782 (antisense e[5mC]*eG*dT*dG*d[5mC]*dG*d[5mC]*dT*d[5mC]*dA*dG*d[5mC]*eT*e[5mC]) [compound 435782] | 36
16 | 435783 (antisense eA*eA*dA*d[5mC]*d[5mC]*dG*dG*d[5mC]*dA*dT*dG*d[5mC]*eG*e[5mC]) [compound 435783] | 49
17 | 435784 (antisense e[5mC]*e[5mC]*dT*dA*dA*dG*dT*dG*dT*dG*d[5mC]*dT*eT*eT) [compound 435784] | 17
18 | 435785 (antisense eA*eG*d[5mC]*dT*dT*d[5mC]*dT*d[5mC]*dA*d[5mC]*d[5mC]*dA*e[5mC]*eG) [compound 435785] | 46
19 | 435786 (antisense eA*eG*dG*dT*dG*dA*d[5mC]*d[5mC]*d[5mC]*dG*dT*dG*eA*eG) [compound 435786] | 68
20 | 435787 (antisense eG*eA*dG*dT*dG*dT*dG*dA*dG*dG*d[5mC]*dT*eT*e[5mC]) [compound 435787] | 34
21 | 435788 (antisense e[5mC]*e[5mC]*dT*dG*dT*dG*dA*dG*dT*dG*dT*dG*eA*eG) [compound 435788] | 20
22 | 435789 (antisense e[5mC]*eA*dT*dG*dT*dT*dA*dG*d[5mC]*d[5mC]*dT*dT*eT*eG) [compound 435789] | 3

Row | Substance | % Inhibition [%]
23 | 435790 (antisense eA*eT*dG*dA*d[5mC]*d[5mC]*dA*dT*d[5mC]*d[5mC]*dT*d[5mC]*eA*eA) [compound 435790] | 1
24 | 435791 (antisense eA*eT*dG*dA*dG*dA*dA*dA*dT*dG*d[5mC]*dT*eT*eT) [compound 435791] | 0
25 | 435792 (antisense eT*eG*d[5mC]*dT*dG*dA*dA*dG*dA*dA*dA*d[5mC]*eT*eG) [compound 435792] | 9
26 | 435793 (antisense eT*eG*d[5mC]*dA*dG*dT*dA*dG*d[5mC]*dA*dG*dA*eT*eG) [compound 435793] | 27
27 | 435794 (antisense eG*eA*dG*dG*dT*dA*d[5mC]*dA*d[5mC]*dA*dG*dG*e[5mC]*eT) [compound 435794] | 26
28 | 435795 (antisense eA*e[5mC]*dA*d[5mC]*d[5mC]*d[5mC]*dG*dA*dG*dG*dT*dT*e[5mC]*eA) [compound 435795] | 66
29 | 435796 (antisense eT*eG*dA*d[5mC]*d[5mC]*dA*d[5mC]*dA*d[5mC]*dA*dT*dT*eT*e[5mC]) [compound 435796] | 30
30 | 435797 (antisense eA*eA*dT*d[5mC]*dT*dT*dG*dG*d[5mC]*d[5mC]*d[5mC]*d[5mC]*eT*e[5mC]) [compound 435797] | 16
31 | 435798 (antisense eA*eG*d[5mC]*d[5mC]*dA*dG*dA*d[5mC]*dT*dT*dT*d[5mC]*e[5mC]*eT) [compound 435798] | 54
32 | 435799 (antisense e[5mC]*eT*dG*dG*dT*d[5mC]*d[5mC]*d[5mC]*d[5mC]*dA*dT*d[5mC]*eT*eG) [compound 435799] | 33
33 | 435800 (antisense eG*eG*dA*d[5mC]*d[5mC]*d[5mC]*dA*dA*dA*dG*dT*dG*eG*eG) [compound 435800] | 0
34 | 435801 (antisense e[5mC]*eG*dG*dT*dT*dG*dG*d[5mC]*d[5mC]*dA*dG*dG*e[5mC]*e[5mC]) [compound 435801] | 38
35 | 435802 (antisense eG*eT*d[5mC]*dA*d[5mC]*d[5mC]*dT*dA*dG*dA*d[5mC]*d[5mC]*eA*eA) [compound 435802] | 61
36 | 435803 (antisense eG*eA*dG*dA*dA*dT*dT*dG*d[5mC]*d[5mC]*d[5mC]*dA*eG*eG) [compound 435803] | 0
37 | 435804 (antisense e[5mC]*eA*dG*dG*dG*dA*d[5mC]*dT*d[5mC]*dT*d[5mC]*dA*eG*e[5mC]) [compound 435804] | 26
38 | 435805 (antisense eT*eG*dA*dA*dT*dT*dA*d[5mC]*dT*dG*dA*dA*e[5mC]*e[5mC]) [compound 435805] | 0
39 | 435806 (antisense eT*eG*dA*d[5mC]*d[5mC]*d[5mC]*d[5mC]*dA*d[5mC]*dA*dG*dG*eG*eA) [compound 435806] | 7
40 | 435807 (antisense e[5mC]*eA*dG*dT*dA*d[5mC]*dT*dT*d[5mC]*d[5mC]*d[5mC]*dA*e[5mC]*eG) [compound 435807] | 35
41 | 435808 (antisense e[5mC]*eT*d[5mC]*dT*dG*dG*dA*d[5mC]*dA*d[5mC]*d[5mC]*dG*eG*eG) [compound 435808] | 66
42 | 435809 (antisense e[5mC]*eT*dG*dA*d[5mC]*dA*dA*dT*dG*dT*dG*dA*eT*eG) [compound 435809] | 5
43 | 435810 (antisense e[5mC]*eT*dG*dA*dG*dG*dG*dA*dA*dT*dG*dT*eT*eG) [compound 435810] | 1
